From the NIST ThermoML archive (doi:10.1021/je7002836)

Key:
[1] = xn = mol fraction of the nth substance listed; settings: 101 kPa, Liquid
[2] = molar heat capacity at constant pressure; xn = mol fraction of the nth substance listed; settings: 101 kPa, Liquid
[3] = 101 kPa, Liquid
[4] = molar heat capacity at constant pressure; settings: 101 kPa, Liquid

CCCC[n+]1cccc(C)c1.F[B-](F)(F)F [1-butyl-3-methylpyridinium tetrafluoroborate] + C[N+](=O)[O-]
x1 = 1
Settings	mass density, [1] [kg/m3]	molar heat capacity at constant pressure, [2] [J/K/mol]
293.15 K	1188.6	385.8
298.15 K	1185.2	387.7
303.15 K	1181.7	390.1
308.15 K	1178.3	392.8
313.15 K	1174.9	395.9
318.15 K	1171.6	399.3

CCO [ethanol] + CCCC[n+]1cccc(C)c1.F[B-](F)(F)F
x2 = 0
Settings	mass density, [1] [kg/m3]	molar heat capacity at constant pressure, [2] [J/K/mol]
293.15 K	789.6	111.3
298.15 K	785.3	113.3
303.15 K	781	115.3
308.15 K	776.7	117.5
313.15 K	772.3	119.7
318.15 K	767.8	122.1

C[N+](=O)[O-] [nitromethane]
Settings	mass density, [3] [kg/m3]	molar heat capacity at constant pressure, [4] [J/K/mol]
293.15 K	1140.2	106.6
298.15 K	1133.4	106.9
303.15 K	1126.6	107.3
308.15 K	1119.7	107.7
313.15 K	1112.9	108.2
318.15 K	1106	108.6

CCCC[n+]1cccc(C)c1.F[B-](F)(F)F [1-butyl-3-methylpyridinium tetrafluoroborate]
Settings	mass density, [3] [kg/m3]	molar heat capacity at constant pressure, [4] [J/K/mol]
293.15 K	1188.6	385.8
298.15 K	1185.2	387.7
303.15 K	1181.7	390.1
308.15 K	1178.3	392.8
313.15 K	1174.9	395.9
318.15 K	1171.6	399.3

O [water] + CCCC[n+]1cccc(C)c1.F[B-](F)(F)F
x2 = 0
Settings	mass density, 308.15 K [kg/m3]	molar heat capacity at constant pressure, 293.15 K [J/K/mol]	molar heat capacity at constant pressure, 298.15 K [J/K/mol]	molar heat capacity at constant pressure, 303.15 K [J/K/mol]	molar heat capacity at constant pressure, 308.15 K [J/K/mol]	molar heat capacity at constant pressure, 313.15 K [J/K/mol]	molar heat capacity at constant pressure, 318.15 K [J/K/mol]
[1]	994.1	–	–	–	–	–	–
[2]	–	75.4	75.3	75.3	75.2	75.2	75.3

CCO [ethanol]
Settings	mass density, [3] [kg/m3]	molar heat capacity at constant pressure, [4] [J/K/mol]
293.15 K	789.6	111.3
298.15 K	785.3	113.3
303.15 K	781	115.3
308.15 K	776.7	117.5
313.15 K	772.3	119.7
318.15 K	767.8	122.1
